# Experiments:
# [1] = tested on: Jurkat; experiment: Cytotoxicity against human Jurkat cells incubated for 72 hrs by MTT assay; type: functional
# [2] = tested on: HT-29; experiment: Cytotoxicity against human HT-29 cells incubated for 72 hrs by MTT assay; type: functional; details: HT-29, 72 h
# [3] = tested on: PANC-1; experiment: Cytotoxicity against human PANC1 cells incubated for 24 hrs by MTT assay; type: functional, cell-based; details: PANC-1, 24 h
# [4] = tested on: Capan-2; experiment: Cytotoxicity against human Capan2 cells incubated for 24 hrs by MTT assay; type: functional, cell-based; details: Capan-2, 24 h
# [5] = tested on: CFPAC-1; experiment: Cytotoxicity against human CFPAC-1 cells incubated for 24 hrs by MTT assay; type: functional, cell-based; details: CFPAC-1, 24 h
# [6] = tested on: MIA PaCa-2; experiment: Cytotoxicity against human MIAPaCa2 cells incubated for 24 hrs by MTT assay; type: functional, cell-based; details: MIA PaCa-2, 24 h
# [7] = Cytotoxicity against mouse DLA cells incubated for 48 hrs by MTT assay; type: functional, cell-based
# [8] = Cytotoxicity against mouse DLA cells incubated for 48 hrs by trypan blue dye based assay; type: functional, cell-based
# [9] = Cytotoxicity against mouse DLA cells incubated for 48 hrs by LDH release assay; type: functional, cell-based
# [10] = target: Coagulation factor X (Homo sapiens, UniProt P00742); experiment: Inhibition of recombinant factor 10a (unknown origin) preincubated for 30 mins followed by chromogenic substrate addition by fluorescence assay
# [11] = target: Serine protease hepsin (Homo sapiens, UniProt P05981); experiment: Inhibition of recombinant human hepsin preincubated for 30 mins followed by Boc-QLR-AMC substrate addition by fluorescence assay
# [12] = target: Prothrombin (Homo sapiens, UniProt P00734); experiment: Inhibition of recombinant thrombin (unknown origin) preincubated for 30 mins followed by chromogenic substrate addition by fluorescence assay
# [13] = target: Hepatocyte growth factor activator serine protease (Homo sapiens, UniProt Q04756); experiment: Inhibition of recombinant HGFA serine protease domain (unknown origin) preincubated for 30 mins followed by Boc-QLR-AMC substrate addition by fluorescence assay
# [14] = target: Suppressor of tumorigenicity 14 protein (Homo sapiens, UniProt Q9Y5Y6); experiment: Inhibition of recombinant human matriptase preincubated for 30 mins followed by Boc-QLR-AMC substrate addition by fluorescence assay
# [15] = tested on: HeLa; experiment: Cytotoxicity against human HeLa cells incubated for 48 hrs by MTT assay; type: functional, cell-based
# [16] = tested on: 4T1; experiment: Antitumor activity against mouse 4T1 cells implanted in BALB/c mouse assessed as median number of metastases per lung at 100 mg/kg, ig administered daily post implantation (reference value: 40.5); type: functional
# [17] = tested on: 4T1; experiment: Inhibition of colony formation in mouse 4T1 cells assessed as colony forming units at 1.25 uM incubated for 7 to 10 days by crystal violet staining based microscopic method (reference value: 364 +/- 46.4 No unit); type: functional
# [18] = tested on: 4T1; experiment: Antitumor activity against mouse 4T1 cells implanted in BALB/c mouse assessed as median number of metastases per lung at 50 mg/kg, ig administered daily post implantation (reference value: 40.5); type: functional
# [19] = Cytotoxicity against mouse MM3MG cells incubated for 48 hrs by MTT assay; type: functional, cell-based
# [20] = tested on: CT26; experiment: Cytotoxicity against mouse CT26 cells incubated for 48 hrs by MTT assay; type: functional, cell-based; details: CT26, 48 h
# [21] = tested on: L02; experiment: Cytotoxicity against human L02 cells incubated for 48 hrs by MTT assay; type: cell-based; details: L02, 48 h
# [22] = Cytotoxicity against mouse Meth-A cells incubated for 48 hrs by MTT assay; type: functional, cell-based
# [23] = tested on: Lewis lung carcinoma cell line; experiment: Cytotoxicity against mouse LLC cells incubated for 48 hrs by MTT assay; type: functional, cell-based
# [24] = tested on: HK-2; experiment: Cytotoxicity against human HK2 cells incubated for 48 hrs by MTT assay; type: cell-based; details: HK-2, 48 h
# [25] = tested on: 4T1; experiment: Inhibition of colony formation in mouse 4T1 cells assessed as assessed as colony forming units at 2.5 uM incubated for 7 to 10 days by crystal violet staining based microscopic method (reference value: 364 +/- 46.4 No unit); type: functional
# [26] = tested on: A549; experiment: Cytotoxicity against human A549 cells incubated for 48 hrs by MTT assay; type: functional, cell-based; details: A549, 48 h
# [27] = tested on: DU-145; experiment: Cytotoxicity against human DU145 cells incubated for 48 hrs by MTT assay; type: functional, cell-based; details: DU-145, 48 h
# [28] = tested on: B16; experiment: Cytotoxicity against mouse B16 cells incubated for 48 hrs by MTT assay; type: functional, cell-based; details: B16, 48 h
# [29] = tested on: 4T1; experiment: Cytotoxicity against mouse 4T1 cells incubated for 48 hrs by MTT assay; type: functional, cell-based; details: 4T1, 48 h
# [30] = target: Tubulin (Homo sapiens) (UniProt P68371+Q9H4B7+P0DPH7+P68366+Q13509+Q71U36+P04350+Q3ZCM7+P07437+P68363+Q9BQE3+Q6PEY2+Q13885+Q9BVA1+Q9BUF5); experiment: Inhibition of tubulin polymerization (unknown origin) at 3 uM incubated for 1 hr by fluorescence assay relative to control; type: protein-complex assay
# [31] = tested on: MDA-MB-231; experiment: Cytotoxicity against human MDA-MB-231 cells incubated for 48 hrs by MTT assay; type: functional, cell-based; details: MDA-MB-231, 48 h
# [32] = tested on: HepG2; experiment: Cytotoxicity against human HepG2 cells incubated for 48 hrs by MTT assay; type: functional, cell-based; details: HepG2, 48 h
# [33] = target: Epidermal growth factor receptor (Homo sapiens) (UniProt P00533); experiment: Inhibition of EGFR (unknown origin) at 10 uM by immunoassay relative to control
# [34] = target: Proto-oncogene tyrosine-protein kinase Src (Homo sapiens, UniProt P12931); experiment: Inhibition of SRC (unknown origin) by Z'-LYTE assay
# [35] = tested on: NIH3T3; experiment: Anti-invasive activity against mouse NIH/3T3 cells transfected with human AdoMetDC cDNA in sense orientation assessed as inhibition of cell invasion at 100 ng/ml incubated for 1 weeks by matrigel-based microscopic analysis relative to control; type: functional; details: NIH3T3, 168 h
# [36] = tested on: NIH3T3; experiment: Anti-invasive activity against mouse NIH/3T3 cells transfected with human AdoMetDC cDNA in antisense orientation assessed as inhibition of cell invasion at 100 ng/ml incubated for 1 weeks by matrigel-based microscopic analysis relative to control; type: functional; details: NIH3T3, 168 h
# [37] = tested on: MDA-MB-231; experiment: Anti-invasive activity against human MDA-MB-231 cells at 30 nM by crystal violet staining based Boyden chamber assay relative to control; type: functional
# [38] = tested on: L1210; experiment: Growth inhibition of mouse L1210 cells by MTS assay; type: functional, cell-based
# [39] = target: Histone deacetylase 1 (Homo sapiens, UniProt Q13547); experiment: Inhibition of HDAC1 (unknown origin) using Ac-peptide as substrate pretreated for 15 mins followed by substrate addition and measured after 60 mins by fluorescence assay
# Chain of Histone deacetylase 1 (Q13547 whole entry): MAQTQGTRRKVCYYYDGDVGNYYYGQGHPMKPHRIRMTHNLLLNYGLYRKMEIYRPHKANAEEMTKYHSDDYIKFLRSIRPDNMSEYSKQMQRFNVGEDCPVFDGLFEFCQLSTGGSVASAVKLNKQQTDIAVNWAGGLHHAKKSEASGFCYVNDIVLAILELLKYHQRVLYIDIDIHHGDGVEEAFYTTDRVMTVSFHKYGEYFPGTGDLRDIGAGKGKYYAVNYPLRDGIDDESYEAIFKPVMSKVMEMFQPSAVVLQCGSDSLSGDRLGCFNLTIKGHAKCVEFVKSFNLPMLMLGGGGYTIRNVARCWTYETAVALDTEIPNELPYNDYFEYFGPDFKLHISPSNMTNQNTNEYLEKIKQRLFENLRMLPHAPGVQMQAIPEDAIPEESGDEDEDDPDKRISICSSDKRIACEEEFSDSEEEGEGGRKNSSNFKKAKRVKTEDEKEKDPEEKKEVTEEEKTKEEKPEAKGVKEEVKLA
# Chain of Hepatocyte growth factor activator serine protease (Q04756 373-407 limits assumed): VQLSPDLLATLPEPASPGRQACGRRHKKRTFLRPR
# Chain of Hepatocyte growth factor activator serine protease (Q04756 408-655 limits assumed): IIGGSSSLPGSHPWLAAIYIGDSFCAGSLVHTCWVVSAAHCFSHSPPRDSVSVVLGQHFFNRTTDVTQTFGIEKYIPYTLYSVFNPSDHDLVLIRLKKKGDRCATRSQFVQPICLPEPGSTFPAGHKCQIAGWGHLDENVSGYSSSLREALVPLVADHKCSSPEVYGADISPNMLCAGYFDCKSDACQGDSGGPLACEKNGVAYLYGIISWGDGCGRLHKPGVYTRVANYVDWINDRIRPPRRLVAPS
# Chain of Coagulation factor X (P00742 41-179 limits assumed): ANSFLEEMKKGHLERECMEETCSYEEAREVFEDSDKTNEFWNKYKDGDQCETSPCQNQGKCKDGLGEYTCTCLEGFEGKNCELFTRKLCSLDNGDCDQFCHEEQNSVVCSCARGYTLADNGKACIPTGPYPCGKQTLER
# Chain of Coagulation factor X (P00742 235-488 limits assumed): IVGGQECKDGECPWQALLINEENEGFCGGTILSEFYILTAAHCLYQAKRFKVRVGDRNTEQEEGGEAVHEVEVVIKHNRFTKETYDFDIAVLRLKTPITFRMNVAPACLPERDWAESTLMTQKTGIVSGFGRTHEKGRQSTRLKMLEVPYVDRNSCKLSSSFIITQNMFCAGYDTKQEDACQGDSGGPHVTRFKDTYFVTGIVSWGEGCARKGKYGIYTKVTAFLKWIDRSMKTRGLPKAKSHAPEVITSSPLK
# Chain of Suppressor of tumorigenicity 14 protein (Q9Y5Y6 whole entry): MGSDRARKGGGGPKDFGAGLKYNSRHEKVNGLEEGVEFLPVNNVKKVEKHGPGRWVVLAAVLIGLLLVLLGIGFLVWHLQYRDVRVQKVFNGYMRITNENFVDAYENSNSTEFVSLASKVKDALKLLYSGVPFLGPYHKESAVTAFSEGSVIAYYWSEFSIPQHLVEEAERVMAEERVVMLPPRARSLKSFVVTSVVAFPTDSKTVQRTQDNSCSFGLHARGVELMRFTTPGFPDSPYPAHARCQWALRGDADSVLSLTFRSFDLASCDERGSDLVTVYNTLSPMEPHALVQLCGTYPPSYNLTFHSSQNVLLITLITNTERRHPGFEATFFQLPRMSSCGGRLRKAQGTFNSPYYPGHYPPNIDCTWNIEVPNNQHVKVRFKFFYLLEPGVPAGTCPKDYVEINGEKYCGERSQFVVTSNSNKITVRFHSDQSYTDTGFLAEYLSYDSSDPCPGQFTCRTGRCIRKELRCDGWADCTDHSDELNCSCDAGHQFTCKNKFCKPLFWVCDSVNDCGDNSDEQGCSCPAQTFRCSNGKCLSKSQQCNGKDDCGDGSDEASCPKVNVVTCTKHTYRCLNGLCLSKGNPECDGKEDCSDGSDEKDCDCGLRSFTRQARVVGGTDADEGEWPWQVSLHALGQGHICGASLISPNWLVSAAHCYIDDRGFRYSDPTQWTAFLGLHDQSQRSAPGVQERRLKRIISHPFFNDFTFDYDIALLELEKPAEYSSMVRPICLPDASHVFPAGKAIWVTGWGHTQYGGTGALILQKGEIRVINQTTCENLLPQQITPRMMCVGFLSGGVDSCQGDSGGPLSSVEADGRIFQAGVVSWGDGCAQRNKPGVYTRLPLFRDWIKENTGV
# Chain of Serine protease hepsin (P05981 1-162 limits assumed): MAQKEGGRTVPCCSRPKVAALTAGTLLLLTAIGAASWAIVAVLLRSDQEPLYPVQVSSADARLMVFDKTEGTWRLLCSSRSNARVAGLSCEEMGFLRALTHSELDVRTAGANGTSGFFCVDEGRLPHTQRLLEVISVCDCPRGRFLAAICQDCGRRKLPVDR
# Chain of Serine protease hepsin (P05981 163-417 limits assumed): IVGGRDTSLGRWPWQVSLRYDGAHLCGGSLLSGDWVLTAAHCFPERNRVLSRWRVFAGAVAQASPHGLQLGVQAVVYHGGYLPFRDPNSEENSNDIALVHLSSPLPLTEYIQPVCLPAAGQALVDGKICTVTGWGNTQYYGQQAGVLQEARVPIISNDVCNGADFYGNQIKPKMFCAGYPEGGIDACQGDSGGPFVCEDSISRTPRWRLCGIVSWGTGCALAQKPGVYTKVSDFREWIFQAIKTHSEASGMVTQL
# Chain of Proto-oncogene tyrosine-protein kinase Src (P12931 2-536 limits assumed): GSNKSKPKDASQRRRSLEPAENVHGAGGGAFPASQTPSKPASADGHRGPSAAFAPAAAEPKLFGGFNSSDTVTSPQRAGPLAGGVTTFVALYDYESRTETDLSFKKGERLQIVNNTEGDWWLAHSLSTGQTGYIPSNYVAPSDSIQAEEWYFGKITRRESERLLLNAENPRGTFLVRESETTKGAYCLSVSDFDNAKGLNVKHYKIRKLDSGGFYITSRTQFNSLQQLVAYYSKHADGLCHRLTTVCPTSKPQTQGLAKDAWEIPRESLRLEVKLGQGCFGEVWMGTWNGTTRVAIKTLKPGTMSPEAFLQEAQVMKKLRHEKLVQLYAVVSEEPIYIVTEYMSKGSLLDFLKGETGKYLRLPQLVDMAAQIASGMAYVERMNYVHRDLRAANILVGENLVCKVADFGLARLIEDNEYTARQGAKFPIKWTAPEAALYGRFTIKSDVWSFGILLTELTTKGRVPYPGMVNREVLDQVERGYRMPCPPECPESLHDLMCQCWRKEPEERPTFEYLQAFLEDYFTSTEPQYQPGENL
# Chain of Epidermal growth factor receptor (Homo sapiens) (P00533 whole entry): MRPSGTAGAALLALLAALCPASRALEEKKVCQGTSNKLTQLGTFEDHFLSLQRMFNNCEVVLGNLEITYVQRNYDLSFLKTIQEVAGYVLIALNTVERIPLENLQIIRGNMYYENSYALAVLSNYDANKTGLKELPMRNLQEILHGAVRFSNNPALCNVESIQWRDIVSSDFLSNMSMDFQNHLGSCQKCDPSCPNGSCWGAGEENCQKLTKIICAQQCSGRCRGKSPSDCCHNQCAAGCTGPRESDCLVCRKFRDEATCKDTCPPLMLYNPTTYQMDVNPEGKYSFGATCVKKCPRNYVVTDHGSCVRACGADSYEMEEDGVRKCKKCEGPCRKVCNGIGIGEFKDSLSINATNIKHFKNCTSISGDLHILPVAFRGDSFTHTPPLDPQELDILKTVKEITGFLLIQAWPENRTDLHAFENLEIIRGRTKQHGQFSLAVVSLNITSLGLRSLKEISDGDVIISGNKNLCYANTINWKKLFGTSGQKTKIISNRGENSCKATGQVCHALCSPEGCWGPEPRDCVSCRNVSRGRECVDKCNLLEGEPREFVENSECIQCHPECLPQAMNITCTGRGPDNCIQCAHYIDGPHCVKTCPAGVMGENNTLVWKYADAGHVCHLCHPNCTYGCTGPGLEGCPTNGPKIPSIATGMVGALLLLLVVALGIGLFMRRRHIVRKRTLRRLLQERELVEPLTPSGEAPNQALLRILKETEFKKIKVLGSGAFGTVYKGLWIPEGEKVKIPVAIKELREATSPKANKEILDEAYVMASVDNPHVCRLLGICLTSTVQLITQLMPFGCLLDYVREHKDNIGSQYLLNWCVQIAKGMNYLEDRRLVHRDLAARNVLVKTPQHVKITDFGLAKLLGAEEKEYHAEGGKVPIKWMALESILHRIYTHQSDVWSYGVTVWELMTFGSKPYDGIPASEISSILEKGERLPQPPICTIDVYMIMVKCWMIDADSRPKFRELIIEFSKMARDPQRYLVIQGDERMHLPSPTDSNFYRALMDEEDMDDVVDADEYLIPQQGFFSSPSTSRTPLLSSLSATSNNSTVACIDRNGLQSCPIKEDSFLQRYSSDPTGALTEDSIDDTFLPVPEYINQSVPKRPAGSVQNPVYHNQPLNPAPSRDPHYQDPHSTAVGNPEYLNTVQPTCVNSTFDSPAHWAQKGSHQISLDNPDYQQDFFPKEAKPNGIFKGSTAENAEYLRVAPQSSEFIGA
structure (smiles),measurement,setting,value
CC/C(=N\Nc1nc(-c2ccc(OC)cc2)cs1)c1cccc(Br)c1,CC50,[1],114 µM
same,CC50,[2],62 µM
O=c1[nH]cc(F)c(=O)[nH]1 [FLUOROURACIL],IC50,[3],62.3 µM
same,IC50,[4],54.2 µM
same,IC50,[5],41.2 µM
same,IC50,[6],24.3 µM
O=C(CN1CCN(c2nc3ccccc3s2)CC1)NNC(=O)c1ccc(Br)cc1,IC50,[7],22.6 µM
same,IC50,[8],25 µM
same,IC50,[9],23 µM
CC[C@H](NC(C)=O)C(=O)N[C@@H](CCCN)C(=O)N[C@@H](CC(C)C)C(=O)N[C@@H](CCCNC(=N)N)C(=O)c1nc2ccc(C(=O)NC3CCNCC3)cc2s1,Ki,[10],0.447 µM
same,Ki,[11],0.00027 µM
same,Ki,[12],2.95 µM
same,Ki,[13],0.0072 µM
same,Ki,[14],0.0013 µM
Nc1ccn([C@@H]2O[C@H](CO)[C@@H](O)C2(F)F)c(=O)n1 [GEMCITABINE],IC50,[3],11 µM
same,IC50,[4],40.8 µM
same,IC50,[5],0.022 µM
same,IC50,[6],0.016 µM
CC(=O)N[C@@H](CCCCN)C(=O)N[C@@H](CCCNC(=N)N)C(=O)N[C@@H](CC(C)C)C(=O)N[C@@H](CCCNC(=N)N)C(=O)c1nc2ccc(C(=O)NCc3ccc(C(=O)O)cc3)cc2s1,Ki,[10],0.029 µM
same,Ki,[11],0.00067 µM
same,Ki,[13],0.0037 µM
same,Ki,[14],0.0025 µM
COc1ccccc1C(=O)Nc1ccc2nc(SCC(=O)NCc3ccc(Cl)cc3)sc2c1,IC50,[15],4.3 µM
same,Activity,[16],6
same,Activity,[17],189 CFU
same,Activity,[18],19.5
same,IC50,[19],> 40 µM
same,IC50,[20],4.3 µM
same,IC50,[21],> 40 µM
same,IC50,[22],12.3 µM
same,IC50,[23],6.5 µM
same,IC50,[24],> 40 µM
same,Activity,[25],56 CFU
same,IC50,[26],2.4 µM
same,IC50,[27],1.9 µM
same,IC50,[28],5.6 µM
same,IC50,[29],1.2 µM
O=C1c2ccccc2C(=O)N1C/C=N\N=c1\scc(-c2cccc([N+](=O)[O-])c2)n1-c1ccccc1,CC50,[1],21.2 µM
same,CC50,[2],21.3 µM
CN(C)C(=S)NN=C(c1ccccn1)c1ccccn1,IC50,[3],0.004 µM
same,IC50,[4],0.001 µM
same,IC50,[5],0.2 µM
same,IC50,[6],0.001 µM
COc1ccc2c(c1)sc1nc(CCC(=O)c3ccc(OC)c(O)c3)cn12,inhibition,[30],59.2%
same,IC50,[31],1.3 µM
Clc1ccc(/C=N\Nc2ccc(-c3nc4ccccc4s3)cc2)cc1,IC50,[32],0.027 µM
same,inhibition,[33],47.3%
Cc1nc(Nc2ncc(-c3ccccc3)s2)cc(N2CCN(CCO)CC2)n1,IC50,[34],0.097 µM
C/C(=N\NC1SC=C(c2ccc3ccccc3c2)N1C)c1ccccn1 (configuration not stated),CC50,[1],16.2 µM
same,CC50,[2],57.8 µM
COC(=O)Nc1nc2cc(C(=O)c3cccs3)ccc2[nH]1,inhibition,[30],58.3%
COc1ccc(C(=O)CCc2cn3c(n2)sc2ccccc23)cc1,inhibition,[30],61.4%
same,IC50,[31],1.2 µM
C/C1=C/C(=O)O[C@@H]2C[C@@H](CC[C@H](C)/C=C\C=C\CC1)O[C@@](O)([C@@H]1CSC(=O)N1)C2 [LATRUNCULIN A],inhibition at 0.1 µg/mL,[35],> 95%
same,inhibition at 0.1 µg/mL,[36],> 95%
same,Activity,[37],<50%
NC(=S)N/N=C/c1ncccc1N [TRIAPINE],IC50,[38],1.3 µM
CN(C(=S)NN=C(c1ccccn1)c1ccccn1)C1CCCCC1,IC50,[3],0.03 µM
same,IC50,[4],0.02 µM
same,IC50,[5],0.203 µM
same,IC50,[6],0.005 µM
O=C(CCCOc1ccc(N2C(=O)CSC2c2ccc(Br)s2)cc1)NO (configuration not stated),IC50,[39],0.073 µM

# Reference: ChEMBL document CHEMBL4346675, “Multi-target compounds acting in cancer progression: Focus on thiosemicarbazone, thiazole and thiazolidinone analogues” (Eur J Med Chem, 2019)
